Measurements: the supplement of paper PMC11061612

Experiments:
[1] = test system: FU-OV-1 (Ovarian Carcinoma); experiment: Bliss excess, mean over the matrix (fraction); higher = more synergy
Summary of the method: (§1)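 Cell lines in DMEM/F12 or RPMI with 10% FBS were plated in 1536-well plates, held 24 hours at 37°C, 5% CO2, then given two-drug dose matrices for 72 hours (DMSO typically 0.2%). Viability was read by CellTiter-Glo 2.0 luminescence and scaled as inhibition from 0 (vehicle wells) to 1 (blank wells). Combination Emax is the second-highest inhibition in the matrix; Bliss excess is observed combination effect minus expected EA + EB − EA·EB, EA and EB being single-agent effects.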

[2] = test system: MSTO-211H (Mesothelioma); experiment: as above
Summary of the method: as §1

[3] = test system: SK-LMS-1 (Other Solid Carcinomas); experiment: as above
Summary of the method: as §1

[4] = test system: SK-MEL-1 (Melanoma); experiment: as above
Summary of the method: as §1

[5] = test system: SK-UT-1 (Other Solid Carcinomas); experiment: as above
Summary of the method: as §1

[6] = test system: WSU-DLCL2 (B-Cell Non-Hodgkin's Lymphoma); experiment: as above
Summary of the method: as §1

[7] = test system: D-283MED (Other Solid Carcinomas); experiment: combination Emax (second highest fraction inhibited in the dose matrix, 72 h); higher = more inhibition; extreme values may be limits of the assay
Summary of the method: as §1

[8] = test system: D-392MG (Glioblastoma); experiment: as above
Summary of the method: as §1

[9] = test system: DOK (Oral Cavity Carcinoma); experiment: as above
Summary of the method: as §1

[10] = test system: FU-OV-1 (Ovarian Carcinoma); experiment: as above
Summary of the method: as §1

[11] = test system: H4 (Low Grade Glioma); experiment: as above
Summary of the method: as §1

[12] = test system: HCT-116 (Colorectal Carcinoma); experiment: as above
Summary of the method: as §1

[13] = test system: MEG-01 (Chronic Myelogenous Leukemia); experiment: as above
Summary of the method: as §1

[14] = test system: MSTO-211H (Mesothelioma); experiment: as above
Summary of the method: as §1

[15] = test system: P31-FUJ (Acute Myeloid Leukemia); experiment: as above
Summary of the method: as §1

[16] = test system: SW48 (Colorectal Carcinoma); experiment: as above
Summary of the method: as §1

[17] = test system: SW948 (Colorectal Carcinoma); experiment: as above
Summary of the method: as §1

[18] = test system: Saos-2 (Osteosarcoma); experiment: as above
Summary of the method: as §1

[19] = test system: WSU-DLCL2 (B-Cell Non-Hodgkin's Lymphoma); experiment: as above
Summary of the method: as §1

[20] = test system: YT (Other Blood Carcinomas); experiment: as above
Summary of the method: as §1
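Wherever Bliss excess, mean over the matrix is given: after 72 h of two-drug dosing.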

Row | SMILES | Bliss excess [1] | Bliss excess [2] | Bliss excess [3] | Bliss excess [4] | Bliss excess [5] | Bliss excess [6] | combination Emax [7] | combination Emax [8] | combination Emax [9] | combination Emax [10] | combination Emax [11] | combination Emax [12] | combination Emax [13] | combination Emax [14] | combination Emax [15] | combination Emax [16] | combination Emax [17] | combination Emax [18] | combination Emax [19] | combination Emax [20]
1 | C[C@@H](Nc1cc(F)cc(F)c1)c1cc(C(=O)N(C)C)cc2c(=O)cc(N3CCOCC3)oc12 [AZD8186] + C1CN(CCC1(C(=O)N[C@@H](CCO)C2=CC=C(C=C2)Cl)N)C3=NC=NC4=C3C=CN4 [AZD5363] (first compound max 10 µM, 7x7, partner max 10 µM) | -0.117 | 0.0272 | 0.0606 | -0.039 | 0.0224 | -0.0155 | 0.485 | 0.363 | 0.655 | 0.401 | 0.597 | 0.47 | 0.226 | 0.265 | 0.521 | 0.557 | 0.656 | 0.425 | 1 | 0.247
2 | C[C@@H](Nc1cc(F)cc(F)c1)c1cc(C(=O)N(C)C)cc2c(=O)cc(N3CCOCC3)oc12 [AZD8186] + CC(=O)c1c(C)c2cnc(Nc3ccc(N4CCNCC4)cn3)nc2n(C2CCCC2)c1=O [Palbociclib] (first compound max 10 µM, 7x7, partner max 10 µM) | -0.0311 | 0.135 | 0.147 | 0.0098 | 0.008 | 0.0762 | 0.831 | 0.446 | 0.538 | 0.444 | 0.697 | 0.684 | 0.182 | 0.428 | 0.277 | 0.617 | 0.433 | 0.329 | 0.762 | 0.448
3 | C[C@@H](Oc1cc(-c2cnn(C3CCNCC3)c2)cnc1N)c1c(Cl)ccc(F)c1Cl [Crizotinib] + CC1=C(C(=CC=C1)Cl)NC(=O)C2=CN=C(S2)NC3=CC(=NC(=N3)C)N4CCN(CC4)CCO [Dasatinib] (first compound max 10 µM, 7x7, partner max 2 µM) | 0.0761 | 0.0718 | 0.153 | -0.0554 | 0.0539 | 0.0824 | 0.979 | 0.921 | 1 | 0.682 | 0.963 | 0.95 | 1 | 0.674 | 0.792 | 0.892 | 0.793 | 0.986 | 0.751 | 0.885
4 | C[C@@H](Oc1cc(-c2cnn(C3CCNCC3)c2)cnc1N)c1c(Cl)ccc(F)c1Cl [Crizotinib] + Cn1cnc2c(F)c(Nc3ccc(Br)cc3Cl)c(C(=O)NOCCO)cc21 [Selumetinib] (first compound max 10 µM, 7x7, partner max 10 µM) | 0.0748 | 0.0294 | 0.0367 | -0.0618 | 0.0041 | -0.0458 | 0.973 | 0.572 | 0.933 | 0.673 | 0.787 | 0.964 | 1 | 0.576 | 0.755 | 0.95 | 0.899 | 0.883 | 0.596 | 0.621
5 | O=C(c1cc(Cc2n[nH]c(=O)c3ccccc23)ccc1F)N1CCN(C(=O)C2CC2)CC1 [Olaparib] + CC1(C)CCC(CN2CCN(c3ccc(C(=O)NS(=O)(=O)c4ccc(NCC5CCOCC5)c([N+](=O)[O-])c4)c(Oc4cnc5[nH]ccc5c4)c3)CC2)=C(c2ccc(Cl)cc2)C1 [Venetoclax] (first compound max 10 µM, 7x7, partner max 1 µM) | -0.0467 | -0.0264 | -0.012 | -0.023 | 0.0047 | 0.0235 | 0.666 | 0.114 | 0.108 | 0.199 | 0.267 | 0.384 | 0.109 | 0.0774 | 0.166 | 0.175 | 0.122 | 0.249 | 0.452 | 0.276
6 | O=C(c1cc(Cc2n[nH]c(=O)c3ccccc23)ccc1F)N1CCN(C(=O)C2CC2)CC1 [Olaparib] + CN(CC[C@H](CSC1=CC=CC=C1)NC2=C(C=C(C=C2)S(=O)(=O)NC(=O)C3=CC=C(C=C3)N4CCC(CC4)[C@H](C5=CC=CC=C5C6=CC=C(C=C6)Cl)O)S(=O)(=O)C(F)(F)F)CCO [AZD4320] (first compound max 10 µM, 7x7, partner max 1 µM) | -0.0355 | -0.0173 | -0.0169 | -0.0299 | 0.0299 | 0.0579 | 0.914 | 0.321 | 0.191 | 0.226 | 0.389 | 0.509 | 0.505 | 0.456 | 0.568 | 0.687 | 0.303 | 0.326 | 0.876 | 0.343
7 | O=C(c1cc(Cc2n[nH]c(=O)c3ccccc23)ccc1F)N1CCN(C(=O)C2CC2)CC1 [Olaparib] + COc1nnc2ccc(N3CCC(c4ccc(OCCN5CCN(C)C(=O)[C@H]5C)cc4)CC3)nn12 [AZD5153] (first compound max 10 µM, 7x7, partner max 1 µM) | -0.0107 | -0.0085 | -0.0329 | -0.0316 | -0.02 | -0.0091 | 0.881 | 0.405 | 0.445 | 0.59 | 0.658 | 0.741 | 0.76 | 0.246 | 0.57 | 0.561 | 0.428 | 0.454 | 0.949 | 0.53
8 | O=C(c1cc(Cc2n[nH]c(=O)c3ccccc23)ccc1F)N1CCN(C(=O)C2CC2)CC1 [Olaparib] + Cc1c2c(nn1C)CSCc1cc(n(C)n1)CSc1cc(c3ccccc3c1)OCCCc1c(C(=O)O)n(C)c3c-2c(Cl)ccc13 [AZD5991] (first compound max 10 µM, 7x7, partner max 1 µM) | -0.071 | -0.029 | -0.0076 | -0.0301 | -0.0141 | 0.0378 | 0.9 | 0.142 | 0.381 | 0.199 | 0.393 | 0.37 | 0.116 | 0.0433 | 0.964 | 0.178 | 0.158 | 0.384 | 0.996 | 1
9 | N#Cc1cnc(Nc2cc(NC[C@H]3CNCCO3)c(C(F)(F)F)cn2)cn1 [SRA737] + C=CCn1c(=O)c2cnc(Nc3ccc(N4CCN(C)CC4)cc3)nc2n1-c1cccc(C(C)(C)O)n1 [AZD1775] (first compound max 10 µM, partner max 1 µM) | 0.0719 | 0.131 | 0.112 | -0.0195 | 0.0497 | 0.205 | 1 | 0.518 | 0.481 | 0.632 | 0.792 | 0.758 | 0.935 | 0.726 | 0.973 | 0.764 | 0.807 | 0.811 | 1 | 1
10 | N#Cc1cnc(Nc2cc(NC[C@H]3CNCCO3)c(C(F)(F)F)cn2)cn1 [SRA737] + Nc1ccn([C@@H]2O[C@H](CO)[C@@H](O)C2(F)F)c(=O)n1 [Gemcitabine] (first compound max 10 µM, 7x7, partner max 0.3 µM) | -0.0233 | -0.0082 | 0.0202 | 0.0048 | 0.0162 | 0.111 | 1 | 0.611 | 0.704 | 0.584 | 0.953 | 0.873 | 0.883 | 0.83 | 1 | 0.841 | 0.828 | 0.817 | 1 | 1
11 | CC1(C)CCC(CN2CCN(c3ccc(C(=O)NS(=O)(=O)c4ccc(NCC5CCOCC5)c([N+](=O)[O-])c4)c(Oc4cnc5[nH]ccc5c4)c3)CC2)=C(c2ccc(Cl)cc2)C1 [Venetoclax] + CS(=O)(=O)CCNCc1ccc(-c2ccc3ncnc(Nc4ccc(OCc5cccc(F)c5)c(Cl)c4)c3c2)o1 [Lapatinib] (first compound max 1 µM, 7x7, partner max 10 µM) | -0.0697 | -0.019 | -0.0127 | 0.0097 | -0.0286 | 0.0902 | 0.927 | 0.0713 | 0.645 | 0.324 | 0.171 | 0.391 | 0.485 | 0.299 | 0.581 | 0.391 | 0.352 | 0.214 | 0.798 | 0.295
